Data as given in article PMC12396409, “Screening and hit evaluation of a microbial metabolite library against the pathogenic Plasmodium falciparum and Toxoplasma gondii parasites” (International Journal for Parasitology: Drugs and Drug …, 2025).
Read-outs that look alike come from different tables or passages of the source.

Experiments:
[1] = test system: T. gondii RH strain (RH-Tub-eYFP) tachyzoites; assay: microbe, parasite or virus in culture; type: cell-based, Toxoplasma gondii; details: 72 h; for percent parasite growth at 2 µg/mL: Toxoplasma gondii
[2] = test system: P. falciparum 3D7 parasites; assay: P. falciparum growth inhibition assay, 1-cycle (72 h treatment), SYBR DNA staining (library screen at 2 μg/mL and dose-response); type: cell-based, Plasmodium falciparum; details: for activity at 2 µg/mL: Plasmodium falciparum, 3D7
[3] = test system: P. falciparum 3D7 parasites; assay: P. falciparum growth inhibition assay, 2-cycle (120 h treatment), delayed-death screen and dose-response; type: cell-based, Plasmodium falciparum; details: for activity at 2 µg/mL: Plasmodium falciparum, 3D7
[4] = library screen at 2 μg/mL, % growth, replicate 1
[5] = library screen at 2 μg/mL, % growth, replicate 2
[6] = library screen at 2 μg/mL, 72 h, % growth, replicate 1
[7] = library screen at 2 μg/mL, 72 h, % growth, replicate 2
[8] = library screen at 2 μg/mL, 120 h, % growth, replicate 1
[9] = library screen at 2 μg/mL, 120 h, % growth, replicate 2
[10] = T. gondii, screen at 2 μg/mL, replicate 1
[11] = P. falciparum, 72 h, screen at 2 μg/mL, replicate 1
[12] = P. falciparum, 72 h, screen at 2 μg/mL, replicate 2
[13] = P. falciparum, 120 h, screen at 2 μg/mL, replicate 1
[14] = P. falciparum, 120 h, screen at 2 μg/mL, replicate 2
[15] = T. gondii, screen at 2 μg/mL, replicate 2

In the case of `COc1cc(/C=C/C(=O)O)ccc1O` [Ferulic acid], the Tg_72h_%Growth_Rep1 [1, 4] is reported as 101.17%, the Tg_72h_%Growth_Rep2 [1, 5] is reported as 94.55% and the Pf_72h_%Growth_Rep1 [2, 6] is reported as 82.96%. The Pf_72h_%Growth_Rep2 [2, 7] was 102.51%, the Pf_120h_%Growth_Rep1 [3, 8] was 78.07% and the Pf_120h_%Growth_Rep2 [3, 9] was 101.86%.

Molecule `C/C=C/C[C@@H](C)[C@@H](O)[C@H]1C(=O)N[C@@H](CC)C(=O)N(C)CC(=O)N(C)[C@@H](CC(C)C)C(=O)N[C@@H](C(C)C)C(=O)N(C)[C@@H](CC(C)C)C(=O)N[C@@H](C)C(=O)N[C@H](C)C(=O)N(C)[C@@H](CC(C)C)C(=O)N(C)[C@@H](CC(C)C)C(=O)N(C)[C@H](C(C)C)C(=O)N1C` [Cyclosporin H] has a Tg_72h_%Growth_Rep1 [1, 10] of 148.50%, a Pf_72h_%Growth_Rep1 [2, 11] of 6.54% and a Pf_72h_%Growth_Rep2 [2, 12] of 2.27%. For the same molecule, the Pf_120h_%Growth_Rep1 [3, 13] was 5.94% and the Pf_120h_%Growth_Rep2 [3, 14] was 7.89%.

Molecule `[N-]=[N+]=NCC(=O)N[C@H](CO)[C@H](O)c1ccc([N+](=O)[O-])cc1` [Azidamfenicol] has a percent parasite growth at 2 µg/mL ([1]; library screen at 2 μg/mL, % growth, replicate 1, read-out: Tg_72h_%Growth_Rep1) of 129%, a percent parasite growth at 2 µg/mL ([1]; library screen at 2 μg/mL, % growth, replicate 2, read-out: Tg_72h_%Growth_Rep2) of 103% and an activity at 2 µg/mL ([2]; library screen at 2 μg/mL, 72 h, % growth, replicate 1, read-out: Pf_72h_%Growth_Rep1) of 82.7%. The activity at 2 µg/mL ([2]; library screen at 2 μg/mL, 72 h, % growth, replicate 2, read-out: Pf_72h_%Growth_Rep2) was 84.9%, the activity at 2 µg/mL ([3]; library screen at 2 μg/mL, 120 h, % growth, replicate 1, read-out: Pf_120h_%Growth_Rep1) was 64.6% and the activity at 2 µg/mL ([3]; library screen at 2 μg/mL, 120 h, % growth, replicate 2, read-out: Pf_120h_%Growth_Rep2) was 95.3%.

For `COc1ccc(Cl)c(C)c1C(=O)O[C@@H]1C[C@H](O[C@H]2[C@H](O)C[C@H](O[C@H]3CCC[C@@H]4[C@@H]3C=C[C@H]3CCCC/C=C/[C@@H]5C=C(C(=O)O)[C@H](C)C[C@]56OC(=O)C(=C6O)OC(=O)[C@@]43C)O[C@@H]2C)O[C@H](C)[C@H]1O` [Chlorothricin], the Tg_72h_%Growth_Rep1 [1, 10] was 75.08%, the Tg_72h_%Growth_Rep2 [1, 15] was 94.25% and the Pf_72h_%Growth_Rep1 [2, 11] was 106.01%. The Pf_72h_%Growth_Rep2 [2, 12] was 86.61%, the Pf_120h_%Growth_Rep1 [3, 13] was 151.59% and the Pf_120h_%Growth_Rep2 [3, 14] was 96.98%.

Work on `COc1c2c(cc3c1c(=O)c1ccccc1n3C)OCO2` [Evoxanthine] yielded a Tg_72h_%Growth_Rep1 [1, 4] of 136.78%, a Tg_72h_%Growth_Rep2 [1, 5] of 86.81% and a Pf_72h_%Growth_Rep1 [2, 6] of 81.42%. It also gave a Pf_72h_%Growth_Rep2 [2, 7] of 82.46%, a Pf_120h_%Growth_Rep1 [3, 8] of 87.52% and a Pf_120h_%Growth_Rep2 [3, 9] of 89.49%.

`COc1cc2c(oc(=O)c3cc(C)cc(OC)c32)c2c([C@H]3O[C@@H]([C@@H](C)O)[C@H](O)[C@H]3O)ccc(O)c12` [BIA-G1034] was tested, and the Tg_72h_%Growth_Rep1 ([1]; T. gondii RH, library screen at 2 μg/mL, % growth, replicate 1) was 123.33%, the Tg_72h_%Growth_Rep2 ([1]; T. gondii RH, library screen at 2 μg/mL, % growth, replicate 2) was 101.31% and the Pf_72h_%Growth_Rep1 ([2]; P. falciparum 3D7, 72 h, library screen at 2 μg/mL, % growth, replicate 1) was 90.69%. For the same molecule, the Pf_72h_%Growth_Rep2 ([2]; P. falciparum 3D7, 72 h, library screen at 2 μg/mL, % growth, replicate 2) was 120.87%, the Pf_120h_%Growth_Rep1 ([3]; P. falciparum 3D7, 120 h, library screen at 2 μg/mL, % growth, replicate 1) was 90.16% and the Pf_120h_%Growth_Rep2 ([3]; P. falciparum 3D7, 120 h, library screen at 2 μg/mL, % growth, replicate 2) was 122.56%.

Molecule `CC(C)C(=O)N[C@H](CO)[C@H](O)c1ccc([N+](=O)[O-])cc1` [Corynecin III] has a Tg_72h_%Growth_Rep1 [1, 10] of 93.46%, a Tg_72h_%Growth_Rep2 [1, 15] of 102.63% and a Pf_72h_%Growth_Rep1 [2, 11] of 86.99%. It also gave a Pf_72h_%Growth_Rep2 [2, 12] of 97.15%, a Pf_120h_%Growth_Rep1 [3, 13] of 87.60% and a Pf_120h_%Growth_Rep2 [3, 14] of 90.07%.

Molecule `O=c1[nH]c2ccccc2c(-c2cccc(O)c2)c1O` [Viridicatol] has a Tg_72h_%Growth_Rep1 [1, 10] of 112.17%, a Tg_72h_%Growth_Rep2 [1, 15] of 75.26% and a Pf_72h_%Growth_Rep1 [2, 11] of 94.32%. It also gave a Pf_72h_%Growth_Rep2 [2, 12] of 122.09%, a Pf_120h_%Growth_Rep1 [3, 13] of 110.38% and a Pf_120h_%Growth_Rep2 [3, 14] of 105.05%.
